{"source": "patent US10899879B2", "about": "“Biodegradable trehalose glycopolymers” (THE REGENTS OF THE UNIVERSITY OF CALIFORNIA, priority 2014, dated 2021)", "key": {"lysozyme": {"biological_target": "lysozyme (Gallus gallus, UniProt P00698)", "sequence (P00698 19-147)": "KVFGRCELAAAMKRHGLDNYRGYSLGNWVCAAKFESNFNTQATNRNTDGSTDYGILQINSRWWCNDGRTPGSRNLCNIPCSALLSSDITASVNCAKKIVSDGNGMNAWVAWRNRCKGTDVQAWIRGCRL", "assay": "Stabilization of lysozyme against heat stress with trehalose-CL as excipient", "assay_type": "biochemical", "settings": "lysozyme 0.02 mg/mL heated to 90° C. for 20 minutes; additive 5 to 25 wt eq.; FIG. 12a", "description": "Stabilization of model proteins using trehalose-caprolactone as excipient. The ability of these biodegradable trehalose polymers to stabilize proteins was confirmed through heat and lyophilization stress assays. […] Therefore, these proteins were also selected to test the biodegradable trehalose polymers. First, lysozyme was stressed by heating to 90° C. for 20 minutes.\nTrehalose-CL and a styrenyl ether trehalose (SET) polymer previously described were also directly compared in their stabilization of lysozyme (FIG. 13) (Lee et al., 2013). […] Thus, the degradable trehalose glycopolymer was similar in stabilization ability to the non-degradable version."}, "β-galactosidase (β-Gal)": {"system": "β-galactosidase (β-Gal)", "settings": "three 12-hour desiccation cycles; 25 equivalents of trehalose; FIG. 12b", "experimental": "The stabilization of β-Gal against lyophilization stress was also measured. […] The activity of β-Gal was determined by reaction with ortho-nitrophenol galactose (ONPG). When incubated with β-Gal, release of the yellow-colored o-nitrophenol from ONPG can be monitored at 405 nm.\nThe activity of β-Gal was determined by reaction with ortho-nitrophenol galactose (ONPG). When incubated with β-Gal, release of the yellow-colored o-nitrophenol from ONPG can be monitored at 405 nm.\nLyophilization studies with β-galactosidase were carried out as previously described; β-Gal was subjected to three 12 hour lyophliization cycles before dilution. Activity was assayed by monitoring the hydrolysis of o-nitrophenol galactose (ONPG) at 405 nm."}}, "data": [{"smiles": "OC[C@H]1O[C@H](O[C@H]2O[C@H](CO)[C@@H](O)[C@H](O)[C@H]2O)[C@H](O)[C@@H](O)[C@@H]1O", "note": "[trehalose]", "values": [{"measurement": "lysozyme native activity retained after heat stress", "setting": "lysozyme", "result": "not significantly different from the negative control"}, {"measurement": "β-Gal native activity maintained after lyophilization stress, 25 equivalents of additive", "setting": "β-galactosidase (β-Gal)", "result": "up to 67%"}]}]}
